Tests used:
[1] = test system: A2-adenosine receptors; assay: Competitive binding assay in bovine brain using 125I-PAPA-APEC (striatal membranes); conditions: fluorescent probes; derivatives in general
Protocol: (§1) The filters were washed with three×3 ml aliquots of pH 7.2 buffer containing 50 mM HEPES, 10 mM Mg^+2, and 0.05% CHAPS. The filters were placed in polypropylene tubes and counted in a Packard gamma counter.

[2] = target: T1, adenosine A2 receptors (Bos taurus, UniProt E1BKU0); assay: FITC-APEC fluorescent binding (association and saturation) to bovine striatal membranes
T1 construct: Striatal tissues obtained from bovine brain; tissue Pel-Freeze Biologicals, Rogers, Ark; host or cells: bovine striatal tissue
T1 sequence (E1BKU0 1-401): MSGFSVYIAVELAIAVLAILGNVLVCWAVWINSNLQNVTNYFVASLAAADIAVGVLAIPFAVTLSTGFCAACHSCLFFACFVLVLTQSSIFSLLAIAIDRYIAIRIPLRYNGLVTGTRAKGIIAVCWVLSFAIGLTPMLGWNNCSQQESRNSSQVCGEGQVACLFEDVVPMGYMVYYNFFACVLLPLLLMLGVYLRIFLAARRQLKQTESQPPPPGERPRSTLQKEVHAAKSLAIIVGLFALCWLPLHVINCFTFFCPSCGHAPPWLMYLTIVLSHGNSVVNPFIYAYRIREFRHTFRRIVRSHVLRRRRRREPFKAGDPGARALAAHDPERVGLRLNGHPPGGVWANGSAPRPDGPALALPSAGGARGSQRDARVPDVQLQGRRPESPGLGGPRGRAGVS
Excerpt: Compounds useful in fluorescent binding assays of adenosine A2 receptors in striatal membranes may be used to screen new ligands for affinity at these receptors, thus contributing to the development of new drugs specific or selective to this receptor. […] The following is an example.
Striatal tissues obtained from bovine brain (Pel-Freeze, Biologicals, Rogers, Ark.) were homogenized in 10 volumes of 0.32M sucrose using a Teflon pestle and glass tube (6-7 passes). The homogenate was centrifuged (4° C.) at 579×g (2,000 rpm) for 10 minutes 4° C.). The initial pellet (P1) was discarded and supernatant recentrifuged at 4° C. (16,000 rpm) for 1 hour. The resultant pellet (P2) was resuspended in ice-cold distilled water using a Brinkman Polytron (setting 6-7, for 3 seconds) and centrifuged (4° C.) at 37,059×g for 1 hour. The distilled water supernatant was decanted and the pellet was resuspended in buffer (50 mM TrisHCl, pH 7.4 at 4° C.) and centrifuged a final time for 1 hour. Tissue homogenates were […] at -80° C. for 1-3 days until binding assays were performed. Adenosine deaminase, (Boehringer Mannheim Biochemicals, Indianapolis, Ind.) from calf intestine was included (10 μ/mg protein, specific activity=200μ/mg) in the incubation media to eliminate endogenous adenosine. Protein quantities were assessed by using the Pierce BCA Protein Assay Reagent (Rockford, Ill.). Protein quantities were ~300μg/assay tube.
Fluorescence intensity (counts per second, cps) was measured using a SPEX Fluorolog Model 1680 0.22-m Double Spectrometer with DM3000 software (SPEX Industries, Edison, N.J.). Excitation and emission spectra were determined by comparing FITC-APEC (Compound 18, 1 μM) to buffer ([…] containing […], pH 7.4 or 8.1 at room temperature) or tissue suspension equivalent in concentration to that used for fluorescent ligand binding experiments. Excitation and emission maxima for FITC-APEC were 492 and 516 nm, respectively.
Association studies of FITC-APEC were performed by incubating (room temperature) striatal membranes in polypropylene tubes containing buffer (pH 7.4) and FITC-APEC (50 nM) for 5-120 minutes. […]
Quantitation (see McCabe et al. Faseb J., Vol. 4, pp 2934-2945, 1990) of FITC-APEC binding was performed by generating a standard line relating fluorescence intensity (cps) emitted to known concentrations (0.5-1024 nM) of FITC-APEC, in buffer ("free" ligand) or tissue suspension.
Bound ligand concentrations (μM) were estimated using linear regression analysis and mole quantities of FITC-APEC bound/mg protein were subsequently determined.

[3] = target: T2, A2 adenosine receptors (Bos taurus, UniProt E1BKU0); assay: Displacement of 125I-APNEA from bovine striatum A2 adenosine receptors; type: binding; parameters: bovine striatum A2 adenosine receptors; from tissue; host or cells: bovine striatum
T2 sequence (E1BKU0 1-401): as above
Excerpt: FITC-APEC binding to bovine striatal membranes was saturable as illustrated by an isotherm representing bound ligand versus increasing concentrations of FITC-APEC (FIG. 1B).

[4] = target: T2, A2 adenosine receptors; assay: Competitive binding assay in bovine brain using 125I-PAPA-APEC (striatal membranes); parameters: Bovine striatal membranes; from tissue; host or cells: bovine (calf) striatal membranes; conditions: bovine striatum; 11, 12 and 14: apparent Ki; read-out: Ki, inhibition of binding of 125I-PAPA-APEC at A2-receptors
Protocol: as §1

[5] = test system: striatal A2-adenosine receptors; assay: Direct binding of 125I-PAPA-APEC to striatal A2-adenosine receptors in bovine brain; conditions: HPLC peak B
[6] = target: striatal A2-adenosine receptors; conditions: Barrington et al., 1989, cited from earlier work
[7] = bovine striatal membranes, fluorescence, 90 min, room temperature

Row | affinity at A2-adenosine receptors [1] | saturability of binding ([2]; bovine striatal membranes, 16-256 nM) | Bmax [2, 7] [pmol/mg protein] | Kd [2, 7] [nM] | time to binding equilibrium ([2]; bovine striatum, room temperature, FITC-APEC 50 nM) [min] | Ki [3] [nM] | Ki [4] [nM] | Structure (SMILES) | specific binding and A2 receptor pharmacology [5] | Kd ([6]; bovine brain striatum) [nM] | degree of specific binding ([6]; striatal A2-adenosine receptors, bovine brain)
1 | high affinity | saturable | 2.26 | 54.6 | ≤ 90 | 59.8 ± 28 | 59.8 ± 28 | CCNC(=O)[C@H]1O[C@@H](n2cnc3c(N)nc(NCCc4ccc(CCC(=O)NCCNC(=S)Nc5ccc(-c6c7ccc(=O)cc-7oc7cc(O)ccc67)c(C(=O)O)c5)cc4)nc32)[C@H](O)[C@@H]1O [Compound 18] |  |  | 
2 |  |  |  |  |  |  |  | CCNC(=O)[C@H]1O[C@@H](n2cnc3c(N)nc(NCCc4ccc(CCC(=O)NCCNC(=O)Cc5ccc(N)c([125I])c5)cc4)nc32)[C@H](O)[C@@H]1O [^125 I-PAPA-APEC] | display specific binding and the appropriate A2 receptor pharmacology | 1.4 | 60-80%
